Experimental data from patent publication US20050048508A1, “Trehalose receptor and method for detecting trehalose with the same” (KABUSHIKI KAISHA HAYASHIBARA SEIBUTSU KAGAKU KENKYUJO, priority 2002, published 2005).

Tests used:
[1] = test system: G protein α-subunits (α15 and α16/Z chimeric protein), no sweet taste receptor; assay: Intracellular calcium ion assay, 293 cells expressing G protein α-subunits without sweet taste receptor; format: cell-based, Mouse, Human; conditions: 293 cells: G protein α-subunits only, no T1R1/T1R2/T1R3; 0.67 ml of 1 M saccharide solution added to 2 ml cell suspension
Protocol: (§1) The coexpression vector for the G protein α-subunit α15 and the G protein α16/Z chimeric protein (hereinafter designated as “G protein α-subunits”) obtained in Example 1-3 was gene transferred to 293 cells, RCB 1637, a human embryonic kidney cell line, available from the Riken Bioresource Center, Ibaraki, Japan, by conventional lipofection. The gene transferred cells were suspended in Dulbecco's Modified Eagle's Medium (D-MEM) supplemented with 1 mg/L of “PUROMYCIN”, a trade mane of puromycin commercialized by Edge Biosystems, MD, USA, and 10% (v/v) of fetal calf serum to give a cell density of 2×10^6 cells/ml and cultured in a plastic petri dish for cell culture. […]
(§2) The captioned reactivity test was conducted according to a conventional intracellular calcium ion assay: 293 Cells prepared in Example 3, capable of coexpressing the G protein α-subunits and the sweet taste receptor(s), were cultured in a plastic petri dish for cell culture until reaching its confluent phase. […] Two milliliters of the resultant cell suspension was injected into a glass cuvette, commercialized by Hitachi, Ltd., Tokyo, Japan, and analyzed on “HITACHI 650-40”, a fluorescence spectrophotometer commercialized by Hitachi, Ltd., Tokyo, Japan. […]

[2] = biological target: T1, T1R2 with G protein α-subunits (α15 and α16/Z chimeric protein) (Mus musculus, UniProt Q925I4, E350G/G527D/P352R/R175Q); assay: Intracellular calcium ion assay, 293 cells coexpressing G protein α-subunits and T1R2; format: cell-based; conditions: 293 cells: T1R2 + G protein α-subunits; 0.67 ml of 1 M saccharide solution added to 2 ml cell suspension; FLUO-4 AM
T1 construct: expressed in transfected cells; host or cells: 293 cells, RCB 1637 (human embryonic kidney)
T1 sequence (Q925I4 20-843 R175Q/E350G/P352R/G527D): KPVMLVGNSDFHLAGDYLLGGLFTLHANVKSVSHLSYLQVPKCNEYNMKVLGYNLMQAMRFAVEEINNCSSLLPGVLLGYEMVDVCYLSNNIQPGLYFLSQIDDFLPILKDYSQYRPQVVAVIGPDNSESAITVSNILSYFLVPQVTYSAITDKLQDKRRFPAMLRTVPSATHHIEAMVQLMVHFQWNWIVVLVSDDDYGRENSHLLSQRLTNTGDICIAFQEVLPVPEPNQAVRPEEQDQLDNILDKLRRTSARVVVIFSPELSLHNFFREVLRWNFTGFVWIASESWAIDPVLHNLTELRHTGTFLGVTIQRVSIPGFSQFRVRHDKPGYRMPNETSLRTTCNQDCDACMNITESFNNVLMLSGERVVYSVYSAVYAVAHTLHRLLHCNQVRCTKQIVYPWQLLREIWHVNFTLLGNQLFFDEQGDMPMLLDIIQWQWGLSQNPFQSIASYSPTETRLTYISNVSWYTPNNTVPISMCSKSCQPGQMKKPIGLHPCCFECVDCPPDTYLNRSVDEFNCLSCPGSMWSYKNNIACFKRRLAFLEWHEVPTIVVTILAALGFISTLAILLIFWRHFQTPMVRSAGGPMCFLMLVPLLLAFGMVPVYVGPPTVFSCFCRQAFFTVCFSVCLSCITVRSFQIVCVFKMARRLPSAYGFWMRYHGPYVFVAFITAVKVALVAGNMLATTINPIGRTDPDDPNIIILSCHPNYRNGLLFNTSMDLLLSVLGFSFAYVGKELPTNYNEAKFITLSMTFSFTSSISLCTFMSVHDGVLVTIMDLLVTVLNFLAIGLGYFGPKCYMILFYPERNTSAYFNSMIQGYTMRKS
Protocol: as §1, §2

Row | SMILES | Influx of calcium ion [1] | Influx of calcium ion [2]
1 | OC[C@H]1O[C@@](CO)(O[C@H]2O[C@H](CO)[C@@H](O)[C@H](O)[C@H]2O)[C@@H](O)[C@@H]1O [Sucrose, reference compound] | Negative | Negative
2 | OC[C@H]1O[C@H](O[C@H]2O[C@H](CO)[C@@H](O)[C@H](O)[C@H]2O)[C@H](O)[C@@H](O)[C@@H]1O [Trehalose] | Negative | Negative
